In patent publication US7629347B2, “Protein tyrosine kinase inhibitors” (Critical Outcome Technologies, Inc., priority 2002, dated 2009):
Structures can show the parent of a compound that is named as a salt. Where two headings read alike, the source gives them in different places.

Assays:
Leukemia Cell Line K562 = experiment: in vitro test on cell line K562; assay type: cell-based; details: Homo sapiens
Description: (§1) The COTI-001 compound was tested in vitro on a variety of cell lines comparing its effect to a known protein tyrosine kinase inhibitor used in the treatment of certain cancers.

Leukemia Cell Line P388 = experiment: in vitro test on cell line P388; assay type: cell-based, murine; details: Mus musculus
Description: as §1

[1] = test system: Breast Cancer Cell Line MCF7; experiment: in vitro test on cell line MCF7; assay type: cell-based; details: Homo sapiens, MCF7, read-out: Actual −Log(GI50) (converted)
Description: as §1

mice [2] = experiment: in vivo toxicity study in mice
Description: (§2) Five groups of mice (3 mice per group) were administered a 50 mg/kg dosage of Formula II.

mice [3] = details: mouse, in vivo, 50 mg/kg
Description: as §2

Row | SMILES | GI50 (Leukemia Cell Line K562; K562, read-out: Actual −Log(GI50) (converted)) [nM] | GI50 (Leukemia Cell Line P388; P388, read-out: Actual −Log(GI50) (converted)) [nM] | GI50 [1] [nM] | tolerated dosage (mice [2]) [mg/kg] | tolerability of dosage (mice [2]; 50 mg/kg dosage) | GI50 (Leukemia Cell Line K562; Leukemia Cell Line K562, in vitro result, read-out: Actual −Log(GI50) (converted)) [nM] | GI50 (Leukemia Cell Line P388; Leukemia Cell Line P388, in vitro result, read-out: Actual −Log(GI50) (converted)) [nM] | tolerability of dosage (mice [3])
1 | CC1CN=C(c2ccc(NC(=O)c3ccc(C(=O)Nc4ccc(C5=NCC(C)CN5)cc4)nc3)cc2)NC1 (centres unmarked) [Formula II, N,N′-Bis[4-(1,4,5,6-tetrahydro-5-methyl-2-pyrimidinyl)phenyl]-2,5-pyridinedicarboxamide dihydrochloride] | 20000 | 1000 | 20000 | ≤ 25 | not tolerated |  |  | 
2 | Cc1ccc(NC(=O)c2ccc(CN3CCN(C)CC3)cc2)cc1Nc1nccc(-c2cccnc2)n1 [Gleevec ™, reference compound] |  |  |  |  |  | 1000 | 2000 | able to tolerate this dosage amount
